Results from ChEMBL document CHEMBL1201862, “PubChem BioAssay data set” (2004).
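Protocol summary: plate cells (96-well), add compound at 5 concentrations, incubate 48 h, interpolate endpoints linearly. The concentration for 50% growth inhibition is given as GI50.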 The source made the active and inactive calls. Rule as the data show it: active = GI50 up to about 1.1 µM and inactive = higher.

Legend:
Experiment in all cases: NCI anticancer screen, dose series, 48 h
NCI-H460 = system: NCI-H460
UACC-62 = system: UACC-62
Malme-3M = system: Malme-3M
SF-295 = system: SF-295
UACC-257 = system: UACC-257
SN12C = system: SN12C
SF-539 = system: SF-539
LOX IMVI = system: LOX IMVI
OVCAR-4 = system: OVCAR-4
SF-268 = system: SF-268
ACHN = system: ACHN
SNB-19 = system: SNB-19
K562 = system: K562
A549 = system: A549
HCT-15 = system: HCT-15
COLO 205 = system: COLO 205
CAKI-1 = system: CAKI-1

SMILES | GI50 (NCI-H460) | GI50 (UACC-62) | GI50 (Malme-3M) | GI50 (SF-295) | GI50 (UACC-257) | GI50 (SN12C) | GI50 (SF-539) | GI50 (LOX IMVI) | GI50 (OVCAR-4) | GI50 (SF-268) | GI50 (ACHN) | GI50 (SNB-19) | GI50 (K562) | GI50 (A549) | GI50 (HCT-15) [µM] | GI50 (COLO 205) | GI50 (CAKI-1)
Cc1[nH]c2ccccc2c1C1Cc2ccccc2N1C(=O)C#Cc1ccc([N+](=O)[O-])cc1 (configuration not stated) | > 100 µM (inactive) | > 100 µM (inactive) | > 100 µM (inactive) | > 100 µM (inactive) | > 100 µM (inactive) | > 100 µM (inactive) | > 100 µM (inactive) | > 100 µM (inactive) | 43.7 µM (inactive) | > 100 µM (inactive) | > 100 µM (inactive) | > 100 µM (inactive) | > 100 µM (inactive) | > 100 µM (inactive) |  |  | 
CC(C)N(C(=O)C12C3C4C5(C#N)C3C1(C#N)C5C42I)C(C)C (configuration not stated) | > 53.6 µM (inactive) | > 100 µM (inactive) | > 100 µM (inactive) | > 100 µM (inactive) | > 100 µM (inactive) | > 100 µM (inactive) | > 100 µM (inactive) | > 49.5 µM (inactive) | > 100 µM (inactive) | > 100 µM (inactive) | > 100 µM (inactive) | > 100 µM (inactive) | > 42.2 µM (inactive) | > 59 µM (inactive) | > 78.5 | > 45.4 µM (inactive) | > 100 µM (inactive)
COc1ccccc1NC(=O)C1=C(C)NC(C)=C(C(=O)Nc2ccccc2OC)C1c1ccc(C(C)C)cc1 | 61.1 µM (inactive) | > 100 µM (inactive) | 67.6 µM (inactive) | > 100 µM (inactive) | 45.2 µM (inactive) | > 100 µM (inactive) | > 100 µM (inactive) | > 100 µM (inactive) | 16.8 µM (inactive) | > 100 µM (inactive) | 65.9 µM (inactive) | > 100 µM (inactive) |  | 40.1 µM (inactive) | > 100 | > 100 µM (inactive) | > 100 µM (inactive)
COc1ccc(/C=N/NS(=O)(=O)c2ccccc2)cc1 | > 100 µM (inactive) | > 100 µM (inactive) | > 100 µM (inactive) | 93.5 µM (inactive) | > 100 µM (inactive) | > 100 µM (inactive) | > 100 µM (inactive) | > 100 µM (inactive) | > 100 µM (inactive) | > 100 µM (inactive) | > 100 µM (inactive) |  | > 100 µM (inactive) | > 100 µM (inactive) | > 100 | > 100 µM (inactive) | > 100 µM (inactive)
CCN(CC)c1ccc2c(c1)Nc1cc(=C(C#N)C#N)c3ccccc3c1=N2 | 95.3 µM (inactive) | > 100 µM (inactive) | > 100 µM (inactive) | > 100 µM (inactive) | > 100 µM (inactive) | > 100 µM (inactive) | > 100 µM (inactive) | 53.5 µM (inactive) | > 100 µM (inactive) | > 100 µM (inactive) | > 100 µM (inactive) | > 100 µM (inactive) | > 100 µM (inactive) | > 100 µM (inactive) |  | > 100 µM (inactive) | > 100 µM (inactive)
CCN(c1ccc(Br)cc1)c1c(Br)c(=O)nc2ccccn12 | > 100 µM (inactive) | 65 µM (inactive) | 64.9 µM (inactive) |  |  | > 100 µM (inactive) | > 100 µM (inactive) |  |  | > 100 µM (inactive) | > 100 µM (inactive) | > 100 µM (inactive) | 90.6 µM (inactive) | > 100 µM (inactive) | 99.1 | > 100 µM (inactive) | 93.1 µM (inactive)
CC[C@@H]1NC(C(=O)OC)Cc2c1[nH]c1ccccc21 (some centres not stated) | 27.9 µM (inactive) | > 100 µM (inactive) | > 100 µM (inactive) | > 100 µM (inactive) | > 100 µM (inactive) | > 100 µM (inactive) | > 100 µM (inactive) | > 100 µM (inactive) | > 100 µM (inactive) |  | > 100 µM (inactive) | > 100 µM (inactive) | > 100 µM (inactive) | > 100 µM (inactive) | > 100 | > 100 µM (inactive) | > 100 µM (inactive)
CC(/C=C/C(=O)c1sc(-n2nc(-c3ccccc3)cc2-c2ccccc2)nc1C)=C\c1ccccc1 | 52.7 µM (inactive) | 40.5 µM (inactive) | 35.8 µM (inactive) | > 10 µM (inactive) | 47.1 µM (inactive) | 40.3 µM (inactive) | 52.1 µM (inactive) | 71.9 µM (inactive) | 7.43 µM (inactive) | 72.9 µM (inactive) | 25.6 µM (inactive) | 64.3 µM (inactive) | 19.9 µM (inactive) | 38.8 µM (inactive) | 19.2 | > 10 µM (inactive) | 20.7 µM (inactive)
C=CCONC(=O)c1ccc(Cl)cc1 | > 100 µM (inactive) | > 100 µM (inactive) | > 100 µM (inactive) | > 100 µM (inactive) | > 100 µM (inactive) | > 100 µM (inactive) | > 100 µM (inactive) | > 100 µM (inactive) | > 100 µM (inactive) | > 100 µM (inactive) | > 100 µM (inactive) | > 100 µM (inactive) | > 100 µM (inactive) | > 100 µM (inactive) | > 100 | > 100 µM (inactive) | > 100 µM (inactive)
